We go through 14 substances from US8753644B2, “Grass peptides for vaccine” (Circassia Limited, priority 2009, dated 2014).

No end group written: not given here.

The test system of the first data set is peripheral blood mononuclear cells (PBMCs) from grass allergic individuals. Put plainly: In vitro T cell cytokine release assay (IFN-γ, IL-10, IL-13) in PBMC cultures. The format is cell-based, human. The settings on record: single peptide; group of 28 subjects.
Regarding “Bio04: Group 5 peptide of Table 2, sequence only in drawing (TALKKAVTAMSEAEKEA)”, the “≧9/28 +ve for one or more cytokine?” value is on record as “Yes”.
Turning to “Bio05: Group 5 peptide of Table 2, sequence only in drawing (NDKFTVFESAFNKALNE)”, the “≧9/28 +ve for one or more cytokine?” value was “Yes”.

The data set is the same for the next values; noted with them: single peptide; number of 28 grass allergic subjects positive (reading > four times control well).
As to “Bio04: Group 5 peptide of Table 2, sequence only in drawing (TALKKAVTAMSEAEKEA)”, the “IFN-γ +ve/28” value is reported as 12 +ve/28, the “IL-10 +ve/28” value is 8 +ve/28 and the “IL-13 +ve/28” value is listed as 5 +ve/28.
For “Bio05: Group 5 peptide of Table 2, sequence only in drawing (NDKFTVFESAFNKALNE)”, in that order: 11 +ve/28, 1 +ve/28 and 5 +ve/28.

Tested on in the next data set: not listed separately
Put plainly: physchem.
Details: not given
In turn, “SGKAFGAMAKKGQED [Ber01, SGKAFGAMAKKGQED]” yielded a solubility above 20000 µg/mL.

Tested on in the next data set: not listed separately
Description: Solubility of peptides.
Details: not given
Substance FIPMKSSWGA [Ber02] showed a solubility above 20000 µg/mL.
As to KDSDEFIPMKSSWGAIWR [Ber02B], the solubility was above 20000 µg/mL.
Still for that read-out and setting: in the case of KFIPTLVAAVKQAYAAKQ [Bio03A] it was above 20000 µg/mL; in that of KKPEVKYAVFEAALTKAIT [Rye09B2], 10000 µg/mL; in that of KPEVKYAVFEAALTKAIT [Rye09B1], 10000 µg/mL.
KSSWGAIWRIDPKKPLK [Ber02C] yielded a solubility above 20000 µg/mL.
KYDAYVATLTEALR [Bio02A] yielded a solubility above 20000 µg/mL.
Same read-out and setting: next, LKKAVTAMSEAEK [Bio04A]: above 20000 µg/mL; NAGFKAAVAAAANAPPK [Rye05C]: 10000 µg/mL; PEVKYAVFEAALTKAIT [Rye09B]: 5000 µg/mL.
Still for that read-out and setting: next, WGAIWRIDTPDKL [Tim04A]: 2000 µg/mL.

A word on the solubility: it is the concentration that dissolves in the medium under given conditions.
